Experimental data taken from PubChem BioAssay (NCI).
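These data come from cells grown in 96-well plates and exposed to compound for 48 hours at five concentrations. TGI marks complete inhibition of growth.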

Legend:
Assay in all cases: NCI-60 cell line screen, 48 h
K-562 leukemia = test system: K-562 leukemia
RPMI-8226 leukemia = test system: RPMI-8226 leukemia
MOLT-4 leukemia = test system: MOLT-4 leukemia
HS 578T breast = test system: HS 578T breast
A498 renal = test system: A498 renal
SK-OV-3 ovarian = test system: SK-OV-3 ovarian
OVCAR-4 ovarian = test system: OVCAR-4 ovarian
OVCAR-5 ovarian = test system: OVCAR-5 ovarian
EKVX NSCLC = test system: EKVX NSCLC
SR leukemia = test system: SR leukemia
OVCAR-8 ovarian = test system: OVCAR-8 ovarian
HOP-92 NSCLC = test system: HOP-92 NSCLC
COLO 205 colon = test system: COLO 205 colon
LOX IMVI melanoma = test system: LOX IMVI melanoma
PC-3 prostate = test system: PC-3 prostate
IGROV1 ovarian = test system: IGROV1 ovarian
U251 CNS = test system: U251 CNS
KM12 colon = test system: KM12 colon
SW-620 colon = test system: SW-620 colon
MALME-3M melanoma = test system: MALME-3M melanoma
OVCAR-3 ovarian = test system: OVCAR-3 ovarian
MDA-MB-435 = test system: MDA-MB-435
HCT-15 colon = test system: HCT-15 colon
SK-MEL-5 melanoma = test system: SK-MEL-5 melanoma
786-0 renal = test system: 786-0 renal
SF-539 CNS = test system: SF-539 CNS
SNB-75 CNS = test system: SNB-75 CNS
NCI-H226 lung = test system: NCI-H226 lung
UACC-62 melanoma = test system: UACC-62 melanoma
HCT-116 colon = test system: HCT-116 colon
MDA-N = test system: MDA-N
SF-268 CNS = test system: SF-268 CNS
HT29 colon = test system: HT29 colon
HL-60(TB) leukemia = test system: HL-60(TB) leukemia
ACHN renal = test system: ACHN renal
SK-MEL-28 melanoma = test system: SK-MEL-28 melanoma
TK-10 renal = test system: TK-10 renal
HCC-2998 colon = test system: HCC-2998 colon
DU-145 prostate = test system: DU-145 prostate
UO-31 renal = test system: UO-31 renal
SK-MEL-2 melanoma = test system: SK-MEL-2 melanoma
BT-549 breast = test system: BT-549 breast
MCF7 breast = test system: MCF7 breast
A549 NSCLC = test system: A549 NSCLC
M14 melanoma = test system: M14 melanoma
SNB-19 CNS = test system: SNB-19 CNS
CCRF-CEM leukemia = test system: CCRF-CEM leukemia
RXF 393 renal = test system: RXF 393 renal
SF-295 CNS = test system: SF-295 CNS
NCI-H23 lung = test system: NCI-H23 lung
SN12C renal = test system: SN12C renal
MDA-MB-231 breast = test system: MDA-MB-231 breast
NCI/ADR-RES ovarian = test system: NCI/ADR-RES ovarian
CAKI-1 renal = test system: CAKI-1 renal
NCI-H460 lung = test system: NCI-H460 lung
UACC-257 melanoma = test system: UACC-257 melanoma
NCI-H522 lung = test system: NCI-H522 lung
HOP-62 NSCLC = test system: HOP-62 NSCLC

Measured: TGI

O=C(O)C(C(C(=O)O)P(=O)(O)O)P(=O)(O)O (centres undefined)
not listed: RXF 393 renal | SF-295 CNS | NCI-H23 lung | SN12C renal | MDA-MB-231 breast | NCI/ADR-RES ovarian | CAKI-1 renal | NCI-H460 lung | UACC-257 melanoma | NCI-H522 lung | HOP-62 NSCLC
> 100 µM: all other assays above

CCOC(=O)Cc1cc(=O)oc2cc(O)ccc12
not listed: OVCAR-4 ovarian | HOP-92 NSCLC | HCC-2998 colon | MCF7 breast | HOP-62 NSCLC
> 100 µM: all other assays above

Cc1cc2c(cc1C)[n+]([O-])c(NCCCN(C)C)c(C#N)[n+]2[O-]
not listed: COLO 205 colon | SK-MEL-5 melanoma | DU-145 prostate | MDA-MB-231 breast
> 100 µM: all other assays above
